Reference: patent publication US6825170B2, “6-O-acyl ketolide antibacterials” (Ortho-McNeil Pharmaceutical, Inc., priority 2001, dated 2004)
≈ marks a conversion by molar mass, not a printed value.

Columns and labels:
Assay in all cases: MIC, microdilution broth method (NCCLS)
Assay type in all cases: cell-based
Conditions in all cases: 35° C., 16-20 hours
H. influenzae ATCC49247 = tested on: H. influenzae ATCC49247
How it was run: (§1)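 Actively growing broth cultures are turbidity-adjusted to give about 5×10^4 CFU/well, then added to two-fold compound dilutions in cation-adjusted Mueller-Hinton broth. After 16-20 hours at 35° C, growth is compared with untreated controls.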

E. faecalis ATCC29212 = tested on: E. faecalis ATCC29212
How it was run: as §1

S. pneumoniae ATCC49619 = tested on: S. pneumoniae ATCC49619
How it was run: as §1

S. aureus ATCC29213 = tested on: S. aureus ATCC29213
How it was run: as §1

E. coli OC2605 = tested on: E. coli OC2605
How it was run: as §1

SMILES	MIC (E: H. influenzae ATCC49247) (H. influenzae ATCC49247) [µg/mL]	MIC (C: E. faecalis ATCC29212) (E. faecalis ATCC29212) [µg/mL]	MIC (D: S. pneumoniae ATCC49619) (S. pneumoniae ATCC49619) [µg/mL]	MIC (B: S. aureus ATCC29213) (S. aureus ATCC29213) [µg/mL]	MIC (A: E. coli OC2605) (E. coli OC2605) [µg/mL]
CCC1OC(=O)C(C)C(=O)C(C)C(OC2OC(C)CC(N(C)C)C2O)C(C)(OC(=O)n2cccc2)CC(C)C(=O)C(C)C2NC(=O)OC12C (stereo not shown) [Compound 2]	>16	8 (≈ 11.6 µM)	0.5 (≈ 0.723 µM)	>16	>16
CCC1OC(=O)C(C)C(=O)C(C)C(OC2OC(C)CC(N(C)C)C2O)C(C)(OC(=O)n2ccc(C=O)c2)CC(C)C(=O)C(C)C2NC(=O)OC12C (stereo not shown) [Compound 3]	>16	4 (≈ 5.56 µM)	1 (≈ 1.39 µM)	>16	>16
CCC1OC(=O)C(C)C(=O)C(C)C(OC2OC(C)CC(N(C)C)C2O)C(C)(OC(=O)n2ccc(C#N)c2)CC(C)C(=O)C(C)C2NC(=O)OC12C (stereo not shown) [Compound 4]	>16	4 (≈ 5.58 µM)	1 (≈ 1.4 µM)	>16	>16
CCC1OC(=O)C(C)C(=O)C(C)C(OC2OC(C)CC(N(C)C)C2O)C(C)(OC(=O)NN)CC(C)C(=O)C(C)C2NC(=O)OC12C (stereo not shown) [Compound 5]	8 (≈ 12.2 µM)	4 (≈ 6.09 µM)	0.5 (≈ 0.761 µM)	16 (≈ 24.4 µM)	>16
CCC1OC(=O)C(C)C(=O)C(C)C(OC2OC(C)CC(N(C)C)C2O)C(C)(OC(=O)OCC=Cc2ccccc2)CC(C)C(=O)C(C)C2NC(=O)OC12C (stereo not shown) [Compound 6]	1 (≈ 1.32 µM)	0.12 (≈ 0.158 µM)	0.03 (≈ 0.0395 µM)	0.12 (≈ 0.158 µM)	16 (≈ 21.1 µM)
CC[C@H]1OC(=O)[C@H](C)C(=O)[C@H](C)[C@@H](O[C@@H]2O[C@H](C)C[C@H](N(C)C)[C@H]2O)[C@](C)(OC(=O)NN=CCc2ccc(-c3ncccn3)cc2)C[C@@H](C)C(=O)[C@H](C)[C@H]2NC(=O)O[C@@]21C [Compound 826]	8 (≈ 9.56 µM)	2 (≈ 2.39 µM)	0.25 (≈ 0.299 µM)	8 (≈ 9.56 µM)	
CC[C@H]1OC(=O)[C@H](C)C(=O)[C@H](C)[C@@H](O[C@@H]2O[C@H](C)C[C@H](N(C)C)[C@H]2O)[C@](C)(OC(=O)NN=C/C=C/c2ccc(-c3ncccn3)cc2)C[C@@H](C)C(=O)[C@H](C)[C@H]2NC(=O)O[C@@]21C [Compound 827]	8 (≈ 9.42 µM)	1 (≈ 1.18 µM)	0.12 (≈ 0.141 µM)	1 (≈ 1.18 µM)	
CC[C@H]1OC(=O)[C@H](C)C(=O)[C@H](C)[C@@H](O[C@@H]2O[C@H](C)C[C@H](N(C)C)[C@H]2O)[C@](C)(OC(=O)SC/C=C/c2ccccc2)C[C@@H](C)C(=O)[C@H](C)[C@H]2NC(=O)O[C@@]21C [Compound 830]	4 (≈ 5.16 µM)	0.5 (≈ 0.645 µM)	0.12 (≈ 0.155 µM)	1 (≈ 1.29 µM)	
CC[C@H]1OC(=O)[C@H](C)C(=O)[C@H](C)[C@@H](O[C@@H]2O[C@H](C)C[C@H](N(C)C)[C@H]2O)[C@](C)(OC(=O)SCc2ccccc2)C[C@@H](C)C(=O)[C@H](C)[C@H]2NC(=O)O[C@@]21C [Compound 831]	8 (≈ 10.7 µM)	0.25 (≈ 0.334 µM)	0.06 (≈ 0.0801 µM)	2 (≈ 2.67 µM)	
C=CCSC(=O)O[C@]1(C)C[C@@H](C)C(=O)[C@H](C)[C@H]2NC(=O)O[C@]2(C)[C@@H](CC)OC(=O)[C@H](C)C(=O)[C@H](C)[C@H]1O[C@@H]1O[C@H](C)C[C@H](N(C)C)[C@H]1O [Compound 832]	8 (≈ 11.4 µM)	0.5 (≈ 0.715 µM)	0.25 (≈ 0.358 µM)	4 (≈ 5.72 µM)	
CC[C@H]1OC(=O)[C@H](C)C(=O)[C@H](C)[C@@H](O[C@@H]2O[C@H](C)C[C@H](N(C)C)[C@H]2O)[C@](C)(OC(=O)SC/C=C/c2ccc(-c3ncccn3)cc2)C[C@@H](C)C(=O)[C@H](C)[C@H]2NC(=O)O[C@@]21C [Compound 833]	16 (≈ 18.8 µM)	0.25 (≈ 0.293 µM)	0.06 (≈ 0.0703 µM)	0.5 (≈ 0.586 µM)	
